Assay results published in paper PMC11648822, “Lactam Truncation Yields a Dihydroquinazolinone Scaffold with Potent Antimalarial Activity that Targets PfATP4” (Chemmedchem, 2024).

Legend:
Assay type in all cases: cell-based
[1] = tested on: P. falciparum Dd2 PfATP4^G358S strain; experiment: PfATP4 drug resistant parasite viability assay (LDH), Dd2 G358S; details: for EC50: Plasmodium falciparum, DD2, 72 h, read-out: Dd2^G358S EC50 (SD)
Description: (§1) These assays were performed according to a previously described protocol.[16] Briefly, P. falciparum Dd2 strains treated with compound were incubated for 72 h at 37 °C. After incubating for 72 h, plates were frozen at −80 °C and then thawed at room temperature for at least 2 h. LDH activity, a surrogate for parasite growth was measured by the addition of the Malstst reagent mix, followed by incubation for 30 min and absorbance read using a ClarioStar Microplate reader at 650 nm. Values were normalized to DMSO control as a percentage and EC50 and dose response curves generated using GraphPad Prism.

[2] = tested on: P. falciparum Dd2 PfATP4^triple (I398F, P990R, D1247Y) strain; experiment: PfATP4 drug resistant parasite viability assay (LDH), Dd2 triple; details: Plasmodium falciparum, DD2, 72 h, read-out: Dd2^triple EC50 (SD)
Description: as §1

[3] = tested on: P. falciparum Dd2 PfATP4^F156L strain; experiment: 'compound 49' resistant parasite viability assay (LDH), Dd2 F156L; details: Plasmodium falciparum, DD2, 72 h, read-out: Dd2^F156L EC50 (SD)
Description: as §1

[4] = tested on: P. falciparum NF54 female gametes; experiment: Dual gamete formation assay, female; details: Plasmodium falciparum; NF54 stage V gametocytes, 48 h incubation; αPfs25 antibody 24 h after induction
Description: PfATP4 inhibitors are known to block the transmission of parasites from humans to mosquitoes by interfering with both gametocytes and gamete development.[29] We evaluated a subset of truncated analogues against male and female gametes using a previously described assay. In this assay, stage V gametocytes are treated with compounds and then xanthurenic acid is added and a drop in temperature is used to simulate the mosquito gut environment to induce gametogenesis. After 30 min of compound treatment, male gamete viability is determined by microscopy measuring exflagellation, and after 24 h of compound treatment, female viability is measured using a female gamete specific αPfs25 antibody.
The compounds were evaluated as previously described.[34] Briefly, mature P. falciparum NF54 stage V gametocytes were exposed to compounds for 48 h at 37 °C in 384 well plates in gametocyte culture medium (RPMI 1640 supplemented with 25 mM HEPES, 50 μg mL^−1 hypoxanthine, 4.8 g L^−1 NaHCO3, 2 mM L‐glutamine, 5 % pooled type AB serum, 0.5 % Albumax II (Gibco)) under a 1 % O2/ 3 % CO2/ 96 % N2 environment. Gametogenesis was then triggered by the addition of 10 μL ookinete medium (gametocyte culture medium supplemented with 100 μM xanthurenic acid and 0.27 μg mL^−1 Cy3‐labelled anti‐Pfs25 antibody) to each well at room temperature. Plates were then cooled on a metal block at 4 °C for four min to ensure even cooling and then stabilised for a further 4 min at 28 °C. At 20 min post‐induction, male gametogenesis was recorded in each well by automated brightfield microscopy using a x4 objective lens and 1.5x magnifier (x6 effective magnification). Afterward, plates were incubated in the dark at room temperature for 24 h and then female gametogenesis was recorded in each well by automated fluorescence microscopy (anti‐Pfs25‐positive cells). […] All data was evaluated in comparison to the positive and negative controls to calculate percentage inhibition of male and female gametocytes, and dose response analysis and EC50 calculation were performed using GraphPad Prism.

[5] = tested on: P. falciparum (Pf) 3D7 parasites; experiment: P. falciparum LDH viability assay; details: Plasmodium falciparum, 3D7, 72 h, LDH activity at 72 h; mean and SD of 3 independent experiments
Text: This assay is a platform assay conducted at the Walter and Eliza Hall Institute and uses a protocol previously decsribed.[30, 31]

[6] = tested on: P. knowlesi YH1 parasites; experiment: P. knowlesi viability assay (SYBR green); details: Plasmodium knowlesi, 48 h, read-out: P. knowlesi EC50 (SD) YH1
Description: These assays were performed as previously described.[16] […] Parasites were synchronised with 5 % (w/v) sorbitol (Sigma‐Aldrich) treatments for ring stages. […] Parasites were grown in 1 % haematocrit, at 1 % and 2 % parasitaemia for P. falciparum and P. knowlesi respectively. […] Parasitaemia was measured using a SYBR DNA staining assay on a fluorometer.[33] After the incubation period, supernatants were removed and well contents were resuspended in PBS.

SMILES | EC50 [1] [nM] | EC50 [2] [nM] | EC50 [3] [nM] | EC50 [4] [nM] | EC50 [5] [nM] | EC50 [6] [nM] | fold less potent against PfATP4^G358S strain relative to the Dd2 parental line ([1]; ratio of EC50s) [fold]
CN1C(=O)c2ccc(Cl)cc2NC1(C)C(=O)Nc1cncc(Cl)c1 (stereo not shown) [Compound 14, 7‐Chloro‐N‐(5‐chloro‐3‐pyridyl)‐2,3‐dimethyl‐4‐oxo‐1H‐quinazoline‐2‐carboxamide] | 61 | 160 | 89 | 120 | 33 | 58 | –
COc1cc(F)c2c(c1)NC(C)(C(=O)Nc1cncc(Cl)c1)N(C)C2=O (stereo not shown) [Compound 36, N‐(5‐Chloropyridin‐3‐yl)‐5‐fluoro‐7‐methoxy‐2,3‐dimethyl‐4‐oxo‐1,2,3,4‐tetrahydroquinazoline‐2‐carboxamide] | 41 | 100 | 47 | 210 | 21 | 33 | –
CN1C(=O)c2ccc(-n3cccn3)cc2NC1(C)C(=O)Nc1cncc(Cl)c1 (stereo not shown) [Compound 33, N‐(5‐Chloropyridin‐3‐yl)‐2,3‐dimethyl‐4‐oxo‐7‐(1H‐pyrazol‐1‐yl)‐1,2,3,4‐tetrahydroquinazoline‐2‐carboxamide] | 537 | 584 | 125 | 1000 | 65 | 101 | 7
